Assay results as given in article PMC11611271, “Rapid prediction of key residues for foldability by machine learning model enables the design of highly functional libraries with hyperstable constrained peptide scaffolds” (PLOS Computational Biology, 2024).
Where a SMILES comes first, the peptide text is derived from it. Bridges are numbered along the chain shown (N, C = ends).

Tests used:
Type in all cases: binding
CRD7 = experiment: phage spot ELISA on CRD7; details: for S/N: phage spot ELISA signal/noise; for S/N / ELISA: S3 Table sheet CRD7; for ELISA: phage spot ELISA signal
From the text: (§1) To determine the performance of the libraries for ligand discovery we chose a panel of eight protein targets, which have no structural homology and a wide mass range (Fig 7C). We screened these eight targets with solution panning strategy and two additional plate panning for CD8α/β and CD28, thus ten panning campaigns in total. We consider clones showing spot phage ELISA signal > 0.3 and signal/noise ratio > 2 as positive hits. At least one binding hit was discovered for nine out of the ten panning campaigns, surpassing the success rate of the best DCP scaffolds reported previously. We also obtained the NGS data for these screening and the ranking of clones for their enrichment along the rounds of screening was analyzed and considered the top-ranking clones as potential hits. Based on their sequence diversity we selected 16 potential hits spanning five protein targets for peptide synthesis in their linear form. Seven of these are hits with positive phage ELISA signal and nine were selected based on NGS ranking without spot ELISA available. Subsequently, we conducted in vitro folding experiments on these peptides in various buffers. We observed a strong propensity for spontaneous folding regardless of the buffer condition. All HCP hits tested successfully folded into three-disulfide-containing product within two days in a universal buffer system (PBS, pH 7.4, 50% DMSO) without the need for a redox pair, as shown in Fig 8A. The binding of these folded peptides to their respective target proteins was confirmed using SPR (Table 4 and S1 Data) and binding kinetics are exemplified by the high-affinity peptide 5ji4-CRD7-2 (see Fig 8B). Among seven selected ELISA-positive hits, all of them were successfully synthesized and in vitro folded with three disulfide bonds and five were proven to be validated binders by SPR (Table 4). Nine peptides selected from the NGS ranking were synthesized and folded with the expected number of disulfide bonds and five of them bound to their target with affinities in the μM range as determined by SPR (Table 4). In general, binding affinities for these SPR-validated initial hits are weak, with Kd values in the micromolar range and fast on- and off-rates. There are two exceptions with binding affinities in the nanomolar range.
(§2) The 5ji4 libraries were constructed following the Kunkel mutagenesis method and the solution panning protocol was followed as previously described. After four to five rounds of binding selection, while eluted pool was subjected to NGS analysis, individual phage clones were also picked and analyzed with phage spot ELISA. Positive clones were subjected to SANGER sequencing.

CD28 = experiment: phage spot ELISA on CD28; details: for S/N: phage spot ELISA signal/noise; for ELISA: phage spot ELISA signal
From the text: as §1, §2

VEGF = experiment: phage spot ELISA on VEGF; details: S3 Table sheet VEGF; for S/N: phage spot ELISA signal/noise; for ELISA: phage spot ELISA signal
From the text: as §1, §2

[1] = S3 Table sheet CD28-1 (panning campaign 1)
[2] = S3 Table sheet CD28-2 (panning campaign 2)

Compound | S/N (CD28; [1]) | ELISA (CD28; [1]) | S/N (VEGF) | ELISA (VEGF) | further results
PCECIWANYVGYPFSSEECERLCRKLGVTNCRVHCG [CRD7 clone 3, phage clone, 5JI4 library, CRD7 panning] | – | – | – | – | S/N (CRD7): 2.388; ELISA (CRD7): 0.289
PCECPSSVYWYFISSSEECERLCRKLGVTNCRVHCG [CRD7 clone 6, phage clone, 5JI4 library, CRD7 panning] | – | – | – | – | S/N (CRD7): 3.75; ELISA (CRD7): 0.225
CSCC[C@@H]1NC(=O)[C@@H]2CSSC[C@H](NC(=O)[C@H]([C@@H](C)O)NC(=O)[C@H]([C@@H](C)O)NC(=O)[C@H](C)NC(=O)[C@H](Cc3c[nH]c4ccccc34)NC(=O)[C@H](CC(=O)O)NC(=O)[C@H](CC(N)=O)NC1=O)C(=O)N[C@@H](CCCNC(=N)N)C(=O)N[C@@H](C(C)C)C(=O)N[C@@H](Cc1c[nH]cn1)C(=O)N[C@H](C(=O)NCC(=O)O)CSSC[C@H](NC(=O)[C@@H]1CCCN1)C(=O)N[C@@H](CCC(=O)O)C(=O)N[C@H]1CSSC[C@H](NC(=O)[C@H](CCC(=O)O)NC(=O)[C@H](CCC(=O)O)NC(=O)[C@H](CO)NC(=O)[C@H](CO)NC(=O)[C@H](CO)NC(=O)[C@H](C(C)C)NC(=O)[C@H]([C@@H](C)O)NC(=O)[C@H](Cc3ccc(O)cc3)NC(=O)[C@H]([C@@H](C)O)NC(=O)[C@H](CCC(=O)O)NC(=O)CNC(=O)[C@H](CC(N)=O)NC(=O)[C@H](C(C)C)NC(=O)[C@H](CC(=O)O)NC1=O)C(=O)NCC(=O)N[C@@H](CCCNC(=N)N)C(=O)N[C@@H](CC(C)C)C(=O)N2 [5ji4-CRD7-3] (H-PCECDVNGETYTVSSSEECGRLCMNDWATTCRVHCG-OH; disulfide 2-35, 4-19, 23-31) | – | – | – | – | ELISA signal (CRD7; phage spot ELISA of the clone, positive hit: signal > 0.3 and signal/noise > 2): 0.65; ELISA s/n (CRD7; phage spot ELISA signal/noise ratio): 9.52
LECSHLQMFVIYNSSEECERLCRKLGVTSCRVHCG [CD28-1 clone 10, phage clone, 5JI4 library, CD28-1 panning] | 2.405 | 0.202 | – | – | –
PCECDVNGETYTVSSSEGCERLCSWDQGKWCRVHCG [CD28-1 clone 13, phage clone, 5JI4 library, CD28-1 panning] | 2.33 | 0.247 | – | – | –
PCEYQTWRVVIPDASSEECERLCRKLGVTNCRVHCG [CD28-1 clone 3, phage clone, 5JI4 library, CD28-1 panning] | 4.407 | 0.4 | – | – | –
PCECDHMQYFILYESSEECERLCRKLGVTNCRVHCG [CD28-1 clone 7, phage clone, 5JI4 library, CD28-1 panning] | 2.516 | 0.234 | – | – | –
PCECDVNGETYTVSSSEECGRLCMNDWATTCRVHCG [CRD7 clone 7, phage clone, 5JI4 library, CRD7 panning] | – | – | – | – | S/N (CRD7): 14.5714; ELISA (CRD7): 0.918
PYECWRGQYFIIYKSSEECERLCRKLGVTNCRVHCG [CD28-1 clone 11, phage clone, 5JI4 library, CD28-1 panning] | 2.209 | 0.201 | – | – | –
RANATEWVPWIIYQSSEECERLCRKLGVTNCRVHCG [CD28-1 clone 2, phage clone, 5JI4 library, CD28-1 panning] | 5.637 | 0.5 | – | – | –
PWNANVNGETYTVSSSEECERLCSAGLVNSCRVHCG [CD28-2 clone 1, phage clone, 5JI4 library, CD28-2 panning] | – | – | – | – | S/N (CD28; [2]): 7.9375; ELISA (CD28; [2]): 0.508
PCECPATVHWYFIGSSEECERLCRKLGVTNSRVHCD [CRD7 clone 1, phage clone, 5JI4 library, CRD7 panning] | – | – | – | – | S/N (CRD7): 7.871; ELISA (CRD7): 0.488
PCECDVNGETYTVSSSEECGRLCMTDWVTSCRVHCG [CRD7 clone 8, phage clone, 5JI4 library, CRD7 panning] | – | – | – | – | S/N (CRD7): 5.905; ELISA (CRD7): 0.372
PCECNYIPWIWIPQSSEECERLCRKLGVTNCRVHCG [CRD7 clone 5, phage clone, 5JI4 library, CRD7 panning] | – | – | – | – | S/N (CRD7): 3.588; ELISA (CRD7): 0.244
PCESIQDVWIIHDSSEECERLCRKLGVTNCRVHCG [CD28-1 clone 6, phage clone, 5JI4 library, CD28-1 panning] | 2.28 | 0.244 | – | – | –
PCECPIRPYGVPVKSSEECERLCRKLGVTNCRVHCG [CRD7 clone 2, phage clone, 5JI4 library, CRD7 panning] | – | – | – | – | S/N (CRD7): 4.654; ELISA (CRD7): 0.377
PCECQFYGTMVGWSSSEECERLCRKLGVTNCRVHCG [VEGF clone 20, phage clone, 5JI4 library, VEGF panning] | – | – | 37.3956 | 3.403 | –
PCECRWMFYSTWELSSEECERLCRKLGVTNCRVHCG [CRD7 clone 4, phage clone, 5JI4 library, CRD7 panning] | – | – | – | – | S/N (CRD7): 4; ELISA (CRD7): 0.28
RANAFWVVLVPDGGSSEECERLCRKLGVTNCRVHCG [CD28-1 clone 4, phage clone, 5JI4 library, CD28-1 panning] | 2.932 | 0.4 | – | – | –

Compound | S/N (CD28; [1]) | ELISA (CD28; [1]) | S/N (VEGF) | ELISA (VEGF) | further results
PCECFFNAVKVGWSSSEECERLCRKLGVTNCRVHCG [VEGF clone 13, phage clone, 5JI4 library, VEGF panning] | – | – | 35.8857 | 3.768 | –
PCECYFETTHVGFASSEECERLCRKLGVTNCRVHCG [VEGF clone 18, phage clone, 5JI4 library, VEGF panning] | – | – | 10.4498 | 3.438 | –
PCECDVNVETYTVSSSEECKRLCWGFGQSDCRVHCG [VEGF clone 26, phage clone, 5JI4 library, VEGF panning] | – | – | 30.2373 | 3.568 | –
PCECYIYNTGAGWGSSEECARLCRKLGVTNCRVHCG [VEGF clone 15, phage clone, 5JI4 library, VEGF panning] | – | – | 30.6033 | 3.703 | –
PCESQSMQHFIIYNSSEECERLCRKLGVTNCRVHCG [CD28-1 clone 1, phage clone, 5JI4 library, CD28-1 panning] | 4.839 | 0.542 | – | – | –
PCECVVLDTVVGKASSEECERLCRKLGVTNCRVHCG [VEGF clone 17, phage clone, 5JI4 library, VEGF panning] | – | – | 37.5957 | 3.534 | –
PCECIILNVVVGESSSEECERLCRKLGVTNCRVHCG [VEGF clone 4, phage clone, 5JI4 library, VEGF panning] | – | – | 2.9 | 4.32 | –
PCECQENTTFIIYSSSEECERLCRKLGVTNCRVHCG [CD28-1 clone 12, phage clone, 5JI4 library, CD28-1 panning] | 1.979 | 0.192 | – | – | –
PCECDVNGETYTVSSSEECERPCSWNEAFSCRVHCG [CD28-1 clone 15, phage clone, 5JI4 library, CD28-1 panning] | 2.576 | 0.219 | – | – | –
PCECDVNGETYTVSSSEGCERLCSWDTRRMCRVHCG [CD28-1 clone 14, phage clone, 5JI4 library, CD28-1 panning] | 2.852 | 0.231 | – | – | –
PCECYFSNTMVGHSSSEECERLCRNLGVTNCRVHCG [VEGF clone 5, phage clone, 5JI4 library, VEGF panning] | – | – | 40.6 | 4.23 | –
PCEFARQNVFIVHSSSEECERLCRTLGVTNCRVHCG [CD28-1 clone 8, phage clone, 5JI4 library, CD28-1 panning] | 1.6194 | 0.217 | – | – | –
PCECYLPKVMVGFSSSEECERLCRNLGVTNCRVHCG [VEGF clone 10, phage clone, 5JI4 library, VEGF panning] | – | – | 12.4652 | 3.939 | –
PRECDEDNIWIIANSSEECERLCRKLGVTNCRVHCG [CD28-1 clone 9, phage clone, 5JI4 library, CD28-1 panning] | 1.511 | 0.213 | – | – | –
PCECFMMEVKVGTGSSEECERLCRKLGVTNCRVHCG [VEGF clone 14, phage clone, 5JI4 library, VEGF panning] | – | – | 42.5632 | 3.703 | –
PANAVIRTWIIFASSEECERLCRKLGVTNCRVHCG [CD28-1 clone 5, phage clone, 5JI4 library, CD28-1 panning] | 3.189 | 0.3 | – | – | –
PCECIXXDSFVGKSSSEECERLCRKLGVTNCRVHCG [VEGF clone 25, phage clone, 5JI4 library, VEGF panning] | – | – | 3.092 | 0.269 | –
PCECFILGMAVGQSSSEECERLCRKLGVTNCRVHCG [VEGF clone 23, phage clone, 5JI4 library, VEGF panning] | – | – | 29.8545 | 3.284 | –
